From US12116358B2, “Substituted indoles and methods of use thereof” (EPIZYME, INC., priority 2018, dated 2024)
Read-outs that look alike come from different tables or passages of the source.

Key:
H3K36me3 in A549 cells = experiment: In-Cell Western (ICW) assay of SETD2 inhibitors (A549 assay); type: cell-based, human; details: A549 cells, read-out: SETD2 A549
Procedure, shortened: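 H3K36me3 In-Cell Western: cells exposed to compound for 3 days at 4,000 cells/well, 37° C. DRAQ5 (1:1000) marked cell number, with 700/800-channel Licor read-out.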

SETD2(1434-1711) = biological target: T1, SETD2(1434-1711) (Homo sapiens, UniProt Q9BYW2); experiment: SETD2 (1434-1711) assay; type: biochemical; details: read-out: SETD2 (1434-1711)
T1 construct: SETD2 (1434-1711) Assay; catalogue N/A
T1 sequence (Q9BYW2 1434-1711): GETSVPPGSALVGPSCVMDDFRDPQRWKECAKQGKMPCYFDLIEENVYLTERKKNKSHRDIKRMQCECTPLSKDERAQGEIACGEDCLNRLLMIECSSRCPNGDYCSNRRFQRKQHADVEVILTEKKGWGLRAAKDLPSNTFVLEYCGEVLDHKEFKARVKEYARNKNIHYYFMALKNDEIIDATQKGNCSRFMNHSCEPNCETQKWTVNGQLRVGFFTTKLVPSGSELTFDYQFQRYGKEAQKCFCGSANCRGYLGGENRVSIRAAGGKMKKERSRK

| SMILES | IC50 (H3K36me3 in A549 cells; Homo sapiens) [µM] | IC50 (SETD2(1434-1711)) [µM] | IC50 (H3K36me3 in A549 cells) [µM] |
| --- | --- | --- | --- |
| Cc1cccnc1C(CCC(=O)N1CCOCC1)NC(=O)c1cc2c(F)ccc(C)c2[nH]1 (centres unmarked) [compound 334] | 1.6 | 0.7 |  |
| Cc1ccc(F)c2cc(C(=O)Nc3cccc(N(C)C4CCN(C)CC4)c3)[nH]c12 [compound 351] |  | 0.09 | > 2 |
| Cc1cccnc1C(Cc1ccc(CN2CCOCC2)cc1)NC(=O)c1cc2c(F)ccc(C)c2[nH]1 (centres unmarked) [compound 358] |  | 0.9 | > 2 |
| CC(=O)N1CCN(C2CC(NC(=O)c3cc4c(F)ccc(C)c4[nH]3)CN(C)C2)CC1 (centres unmarked) [compound 360] |  | 1.2 | > 2 |
| Cc1ccc(F)c2cc(C(=O)NC3C(=O)NCCc4cccnc43)[nH]c12 (centres unmarked) [compound 361] | > 2 | 1.3 |  |
| Cc1ccc(F)c2cc(C(=O)N[C@H]3CCC[C@H](N4CCCOCC4)C3)[nH]c12 [compound 362] | > 2 | 1.4 |  |
| CC(=O)N1CCN(C2COCC(NC(=O)c3cc4c(F)ccc(C)c4[nH]3)C2)CC1 (centres unmarked) [compound 363] |  | 1.5 | > 2 |
| Cc1ccc(F)c2cc(C(=O)NC3CNCCc4ccccc43)[nH]c12 (centres unmarked) [compound 364] |  | 2 | > 2 |
| CC(=O)N1CC2CC(C1)N2c1cccc(NC(=O)c2cc3c(F)ccc(C)c3[nH]2)c1 [compound 365] |  | 2.6 | > 2 |
| CC(=O)N1CCC(N2CCCC(NC(=O)c3cc4c(F)ccc(C)c4[nH]3)C2)CC1 (centres unmarked) [compound 366] | > 2 | 3 |  |
| Cc1ccc(F)c2cc(C(=O)NC3CCCN(C4CCN(C)C(=O)C4)C3)[nH]c12 (centres unmarked) [compound 367] |  | 4.2 | > 2 |
| Cc1ccc(F)c2cc(C(=O)NC3COCC(c4cncnc4)C3)[nH]c12 (centres unmarked) [compound 368] |  | 6.1 | > 2 |
| Cc1ccc(F)c2cc(C(=O)NC3CCCC(c4cncnc4)C3)[nH]c12 (centres unmarked) [compound 369] |  | 6.3 | > 2 |
| Cc1ccc(F)c2cc(C(=O)NC3CCCC(N4CCCN(C)C(=O)C4)C3)[nH]c12 (centres unmarked) [compound 370] |  | 6.8 | > 2 |
| Cc1ccc(F)c2cc(C(=O)Nc3ncc(C4CCN(C)CC4)[nH]3)[nH]c12 [compound 371] | > 2 | > 10 |  |
| Cc1ccc(F)c2cc(C(=O)Nc3cccc(N4CCC(N(C)C)(C(F)(F)F)CC4)c3)[nH]c12 [compound 375] |  | > 10 | > 2 |
| CC(=O)N1CCN(C2CCC(NC(=O)c3cc4c(F)ccc(C)c4[nH]3)C2)CC1 (centres unmarked) [compound 376] |  | > 10 | > 2 |
| Cc1ccc(F)c2cc(C(=O)NC3CCCN(CC(=O)N(C)C)C3)[nH]c12 (centres unmarked) [compound 377] | > 2 | > 10 |  |
| Cc1ccc(F)c2cc(C(=O)NC3CCCN(CCC(=O)N(C)C)C3)[nH]c12 (centres unmarked) [compound 378] |  | > 10 | > 2 |
| Cc1ccc(F)c2cc(C(=O)NC3CCCC(c4cncnc4)C3)[nH]c12 (centres unmarked) [compound 379] |  | > 10 | > 2 |
| Cc1ccc(F)c2cc(C(=O)NC3CCCC(c4cncnc4)C3)[nH]c12 (centres unmarked) [compound 380] |  | > 10 | > 2 |
| CC(=O)N1CCN(C2CCC(NC(=O)c3cc4c(F)ccc(C)c4[nH]3)CC2)CC1 (centres unmarked) [compound 383] |  | > 10 | > 2 |
| CNC(=O)CN1CCCC(NC(=O)c2cc3c(F)ccc(C)c3[nH]2)C1 (centres unmarked) [compound 384] |  | > 10 | > 2 |

Now from value to compound:

| IC50 (H3K36me3 in A549 cells; Homo sapiens) [µM] | IC50 (SETD2(1434-1711)) [µM] | IC50 (H3K36me3 in A549 cells) [µM] | SMILES |
| --- | --- | --- | --- |
| 1.6 | 0.04 |  | Cc1ccc(F)c2cc(C(=O)Nc3cccc(N4CCn5cnnc5C4)c3)[nH]c12 [compound 328] |
| 1.6 | 0.6 |  | Cc1ccc(F)c2cc(C(=O)Nc3cccc(C(=O)N(C)C)c3)[nH]c12 [compound 329] |
| 1.6 | 0.07 |  | Cc1ccc(F)c2cc(C(=O)Nc3cccc(NC4CCN(C)C4)c3)[nH]c12 (centres unmarked) [compound 330] |
| 1.6 | 0.6 |  | Cc1ccc(F)c2cc(C(=O)Nc3cccc(N4CCOCC4CCO)c3)[nH]c12 (centres unmarked) [compound 331] |
|  | 0.2 | 1.6 | Cc1ccc(F)c2cc(C(=O)Nc3cccc(N4CCCC4)c3)[nH]c12 [compound 332] |
|  | 0.3 | 1.6 | Cc1ccc(F)c2cc(C(=O)Nc3cc(Cl)cc(CN4CCOCC4)c3)[nH]c12 [compound 333] |
| 1.6 | 0.08 |  | Cc1ccc(F)c2cc(C(=O)Nc3cccc(N4CCCC(N(C)C)C4)c3)[nH]c12 (centres unmarked) [compound 335] |
|  | 0.4 | 1.6 | Cc1ccc(F)c2cc(C(=O)Nc3cccc(N4CCC(C(C)C)CC4)c3)[nH]c12 [compound 336] |
|  | 0.4 | 1.6 | Cc1ccc(F)c2cc(C(=O)Nc3cccc(-c4c[nH]cn4)c3)[nH]c12 [compound 337] |
| 1.7 | 0.1 |  | Cc1ccc(F)c2cc(C(=O)Nc3cc(N4CCN(C)CC4)c4nccn4c3)[nH]c12 [compound 338] |
| 1.7 | 0.04 |  | Cc1ccc(F)c2cc(C(=O)Nc3cc(Cl)cc([C@H]4CC[C@H](N(C)C)CC4)c3)[nH]c12 [compound 339] |
|  | 0.2 | 1.7 | Cc1ccc(F)c2cc(C(=O)Nc3cccc(CCO)c3)[nH]c12 [compound 341] |
| 1.8 | 0.1 |  | Cc1ccc(F)c2cc(C(=O)Nc3cccc(N(C)C4CCN(C)C4)c3)[nH]c12 (centres unmarked) [compound 342] |
|  | 0.08 | 1.8 | Cc1ccc(F)c2cc(C(=O)Nc3cccc(C4CCC(N(C)C)CC4)c3)[nH]c12 (centres unmarked) [compound 343] |
|  | 0.2 | 1.8 | Cc1ccc(F)c2cc(C(=O)Nc3cccc(N4CCN(C)CC4)n3)[nH]c12 [compound 344] |
| 1.8 | 0.06 |  | Cc1ccc(F)c2cc(C(=O)Nc3cc(C#N)cc(N4CCC(N(C)C)CC4)c3)[nH]c12 [compound 345] |
|  | 0.1 | 1.8 | Cc1ccc(F)c2cc(C(=O)Nc3cccc(-c4ccc(CO)cc4)c3)[nH]c12 [compound 346] |
|  | 0.003 | 1.9 | Cc1ccc(F)c2cc(C(=O)Nc3cccc(N4CCC(N5CCC(N)CC5)C4)c3)[nH]c12 (centres unmarked) [compound 347] |
|  | 0.07 | 1.9 | Cc1ccc(F)c2cc(C(=O)Nc3cccc(N4CC5CC4CN5C)c3)[nH]c12 (centres unmarked) [compound 348] |
| > 2 | 0.08 |  | Cc1ccc(F)c2cc(C(=O)Nc3cc(N4CCN(C)CC4)c4ncccc4c3)[nH]c12 [compound 350] |
| > 2 | 0.1 |  | Cc1ccc(F)c2cc(C(=O)Nc3cccc(CC4CCCN(C)C4)c3)[nH]c12 (centres unmarked) [compound 352] |
|  | 0.1 | > 2 | Cc1ccc(F)c2cc(C(=O)Nc3cc(F)cc([C@H]4CC[C@H](N5CCOCC5)CC4)c3)[nH]c12 [compound 353] |
|  | 0.3 | > 2 | Cc1ccc(F)c2cc(C(=O)Nc3cccc(-c4cc5ccccn5n4)c3)[nH]c12 [compound 354] |
| > 2 | 0.5 |  | Cc1ccc(F)c2cc(C(=O)Nc3cc(N4CCN(C)CC4)n4ccnc4c3)[nH]c12 [compound 355] |
| > 2 | 0.6 |  | Cc1cccnc1C(Cc1cn(CC2CC2)cn1)NC(=O)c1cc2c(F)ccc(C)c2[nH]1 (centres unmarked) [compound 356] |
|  | 0.7 | > 2 | Cc1ccc(F)c2cc(C(=O)Nc3cccc(Cc4ncc[nH]4)c3)[nH]c12 [compound 357] |
